Laboratory results taken from PubChem BioAssay (NCI).
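Following 48 hours of exposure in 96-well plates, responses at five concentrations were used to interpolate endpoints linearly. TGI is the concentration that stops growth completely.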

Experiments:
Assay in all cases: inhibition of tumour cell growth, NCI panel, 48 h
SNB-19 CNS = test system: SNB-19 CNS
EKVX NSCLC = test system: EKVX NSCLC
HCT-15 colon = test system: HCT-15 colon
UACC-257 melanoma = test system: UACC-257 melanoma
UO-31 renal = test system: UO-31 renal
RXF 393 renal = test system: RXF 393 renal
A549 NSCLC = test system: A549 NSCLC
BT-549 breast = test system: BT-549 breast
SK-MEL-28 melanoma = test system: SK-MEL-28 melanoma
HCT-116 colon = test system: HCT-116 colon
IGROV1 ovarian = test system: IGROV1 ovarian
ACHN renal = test system: ACHN renal
CCRF-CEM leukemia = test system: CCRF-CEM leukemia
DU-145 prostate = test system: DU-145 prostate
SK-MEL-5 melanoma = test system: SK-MEL-5 melanoma
NCI-H522 lung = test system: NCI-H522 lung
786-0 renal = test system: 786-0 renal
MCF7 breast = test system: MCF7 breast
KM12 colon = test system: KM12 colon
HT29 colon = test system: HT29 colon

Row | Compound | TGI (SNB-19 CNS) [µM] | TGI (EKVX NSCLC) [µM] | TGI (HCT-15 colon) [µM] | TGI (UACC-257 melanoma) [µM] | TGI (UO-31 renal) [µM] | TGI (RXF 393 renal) [µM] | TGI (A549 NSCLC) [µM] | TGI (BT-549 breast) [µM] | TGI (SK-MEL-28 melanoma) [µM] | TGI (HCT-116 colon) [µM] | TGI (IGROV1 ovarian) [µM] | TGI (ACHN renal) [µM] | TGI (CCRF-CEM leukemia) [µM] | TGI (DU-145 prostate) [µM] | TGI (SK-MEL-5 melanoma) [µM] | TGI (NCI-H522 lung) [µM] | TGI (786-0 renal) [µM] | TGI (MCF7 breast) [µM] | TGI (KM12 colon) [µM] | TGI (HT29 colon) [µM]
1 | O/C(=C\c1nc2ccccc2nc1/C=C(\O)c1ccc(Cl)cc1)c1ccccc1 | > 100 | > 100 | > 100 | > 100 | > 100 | > 100 | > 100 | > 100 | > 100 | > 100 | > 100 | > 100 | > 100 | > 100 | > 100 | > 100 | > 100 | > 100 | > 100 | –
2 | CN(CCCCN1CCCC1)CCCN(C)C(=O)Cc1ccc(Cl)c(Cl)c1 | 57.2 | 37.6 | 85.1 | 13.5 | 3.72 | 29.6 | 44.5 | 32.5 | 3.51 | 28.3 | 45.2 | > 100 | 20.9 | > 100 | 23.8 | 27.9 | 26.1 | 34.4 | 25.3 | 18.1
3 | Cc1nc(Nc2ccccc2Cl)sc1C(=O)CC(=O)C(=O)Nc1c(Cl)cccc1Cl | > 100 | 71.1 | > 100 | > 100 | 86.1 | 92.9 | > 100 | 86.2 | 85.6 | 52 | 63.5 | > 100 | > 100 | > 100 | > 100 | 60.4 | 66 | > 100 | 91.4 | > 100
4 | Nc1nc(N)c(C2=CCNCC2)c(=O)[nH]1 | > 100 | > 100 | > 100 | > 100 | > 100 | > 100 | > 100 | > 100 | > 100 | > 100 | > 100 | > 100 | > 100 | > 100 | > 100 | > 100 | > 100 | > 100 | > 100 | > 100
5 | CC(=O)Nc1ccc(NC(=O)c2c(Cl)c(Cl)c(Cl)c(Cl)c2-c2nc3ccccc3[nH]2)cc1 | > 100 | > 100 | > 100 | > 100 | > 100 | 81.5 | > 100 | > 100 | > 100 | > 100 | > 100 | > 100 | > 100 | > 100 | > 100 | > 100 | > 100 | > 100 | > 100 | > 100
6 | COc1cc(NC(C)=O)ccc1C(=O)N/N=C/c1ccc(Cl)cc1Cl | > 100 | > 100 | > 100 | 70.9 | > 100 | 72.5 | > 100 | > 100 | > 100 | > 100 | > 100 | > 100 | > 100 | > 100 | > 100 | > 100 | 64.4 | > 100 | > 100 | > 100
7 | CCCCc1c2c(nc3c1CCCC3O)CCCC2 (stereo not drawn) | > 100 | > 100 | > 100 | > 100 | > 100 | > 100 | > 100 | > 100 | – | > 100 | > 100 | > 100 | > 100 | > 100 | > 100 | > 100 | > 100 | > 100 | > 100 | > 100
8 | Cc1ccc2c(=O)c3cccc(CC(=O)O)c3[nH]c2c1C | > 100 | > 100 | > 100 | > 100 | > 100 | – | > 100 | > 100 | > 100 | > 100 | > 100 | > 100 | > 100 | > 100 | > 100 | > 100 | > 100 | > 100 | > 100 | > 100
9 | COC(=O)c1ccccc1C1CN=NC12Cc1ccc(C)c(C)c1C2=O (stereo not drawn) | > 100 | > 100 | > 100 | > 100 | > 100 | > 100 | > 100 | > 100 | > 100 | > 100 | > 100 | > 100 | > 100 | > 100 | > 100 | > 100 | > 100 | > 100 | > 100 | > 100
10 | N#Cc1c(O)c(N=Nc2ccccc2F)c(=O)n2c1[nH]c1ccccc12 | > 100 | > 100 | > 100 | > 100 | > 100 | > 100 | > 100 | > 100 | > 100 | > 100 | > 100 | > 100 | > 100 | > 100 | > 100 | 94.9 | > 100 | > 100 | – | > 100
11 | Cc1ccc(NC(=O)CSc2nc(C)nc3c2sc(=S)n3-c2ccccc2)cc1 | > 10 | > 10 | > 10 | > 10 | – | 9.17 | > 10 | 9.55 | > 10 | > 10 | > 10 | > 10 | > 10 | > 10 | > 10 | > 10 | 6.92 | > 10 | > 10 | > 10
12 | OC1(c2ccccc2)CC2CCC(C1)N2CCCC1(c2ccc(F)cc2)OCCO1 (stereo not drawn) | – | > 100 | > 100 | 73.5 | > 100 | > 100 | > 100 | > 100 | > 100 | > 100 | > 100 | > 100 | > 100 | > 100 | 44.3 | > 100 | 32.4 | > 100 | – | > 100
